{"source": "paper PMC9882606", "about": "“Rationally designed inhibitors of the Musashi protein-RNA interaction by hotspot mimicry” (Research Square, 2023)", "key": {"MSI1 RRM1 [1]": {"molecular_target": "T1, MSI1 RRM1 (Homo sapiens, UniProt O43347)", "T1 sequence (O43347 20-110 limits assumed)": "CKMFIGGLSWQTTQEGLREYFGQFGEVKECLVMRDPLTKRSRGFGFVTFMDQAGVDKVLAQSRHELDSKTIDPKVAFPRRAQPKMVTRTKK", "test": "Differential Scanning Fluorimetry (DSF)", "format": "binding", "details": "increasing compound dose", "from_the_text": "Out of concern that R12–7’s activity may be associated with compound aggregation, we elected to continue with optimization of R12–8 (Figure 2b).\nTo further characterize R12–8–44–3, we applied differential scanning fluorimetry (DSF) as an orthogonal secondary assay. […] While this could be a sign of apparent inhibition occurring through aggregation, there are also legitimate inhibitors that reduce their target protein’s melting temperature. An alternate explanation could simply be that MSI1’s folding landscape is not simply two-state, and that a partially-folded intermediate stabilized by R12–8–44–3 affects the unfolding transition."}, "MSI1 RRM1 [2]": {"molecular_target": "T1, MSI1 RRM1", "test": "HSQC chemical shift mapping", "format": "binding", "details": "MSI1 RRM1 in presence vs absence of compound", "from_the_text": "To test the hypothesis that R12–8–44–3 engages MSI1 RRM1 though specific binding interactions (rather than non-specific aggregation), we used HSQC chemical shift mapping. We collected spectra for this construct in the presence and absence of R12–8–44–3 (Figure 3a), using previously-reported assignments from a very similar construct. […] While not all peaks were assigned in our reference spectrum, we gratifyingly find that of the assigned peaks, those with the largest chemical shift differences (Phe23, Lys93) comprise exactly the expected binding site for R12–8–44–3 (Figure 3b).\nFigure 3: Structural characterization of R12–8–44–3 / MSI1. (A) HSQC spectrum of MSI1 RRM1 collected in the presence (red) or absence (black) of R12–8–44–3. Assigned peaks showing the strongest chemical shift difference are labeled (Phe23, Lys93). (B) Mapping the location of these residues to our model of R12–8–44–3/MSI1 confirms that these residues comprise the intended binding site."}, "MSI2 [3]": {"test_system": "MSI2", "test": "Immunoblot of cellular MSI2 protein levels in PC9 cells", "format": "cell-based, human", "details": "PC9, 20 μM compound for 1, 3, 6, 24, or 48 hours", "from_the_text": "To explore the effect of these MSI2 inhibitors in a cancer-relevant cellular context, we selected two MSI2-dependent cancer cell lines: non-small cell lung cancer cell line PC9 and leukemia cell line K562 [73, 98–101]. Upon treatment of PC9 cells with Ro, R12–8–44–3, or negative control R12-neg, we found at multiple time points that cellular MSI2 protein levels were unchanged (Figure 6a). To confirm target engagement, we therefore adapted the cellular thermal shift assay (CETSA). To determine experimental conditions, we first harvested cells and incubated at increasing temperatures; we then removed aggregated protein by centrifugation and used Western blotting to probe the amount of MSI2 remaining in the soluble fraction (Figure 6b, Figure S9). Having established 49 °C as the midpoint of the transition under these (non-equilibrium) conditions, we then treated cells with our candidate MSI2 inhibitor for 3 h, and heated to 49 °C.\n(§1) Figure 6: Direct cellular engagement of MSI2 interaction by R12–44–3. (A) Immunoblot from PC9 cells treated with Ro (positive control), R12-neg (negative control), or R12–8–44–3. Cells were treated with 20 μM compound for 1, 3, 6, 24, or 48 hours. MSI2 protein abundance was then quantified and normalized to untreated sample. One representative image is shown; quantification is presented as the average ± S.E.M. from 3 independent replicates. (B) Thermal-induced aggregation of cellular MSI2 in the PC9 cell line. Cells were briefly incubated at temperatures between 40 °C to 67 °C, then centrifuged and the amount of MSI2 remaining in the soluble fraction was quantified by Western blotting. […] One representative image is shown; quantification is presented as the average ± S.E.M. from 3 independent replicates, normalized first to beta-actin and then to DMSO control. […] One representative image is shown; quantification is presented as the average ± S.E.M. from 3 independent replicates, normalized first to beta-actin and then to DMSO control. […]"}, "MSI2 [4]": {"molecular_target": "MSI2 (Homo sapiens, UniProt Q96DH6)", "sequence (Q96DH6 whole entry)": "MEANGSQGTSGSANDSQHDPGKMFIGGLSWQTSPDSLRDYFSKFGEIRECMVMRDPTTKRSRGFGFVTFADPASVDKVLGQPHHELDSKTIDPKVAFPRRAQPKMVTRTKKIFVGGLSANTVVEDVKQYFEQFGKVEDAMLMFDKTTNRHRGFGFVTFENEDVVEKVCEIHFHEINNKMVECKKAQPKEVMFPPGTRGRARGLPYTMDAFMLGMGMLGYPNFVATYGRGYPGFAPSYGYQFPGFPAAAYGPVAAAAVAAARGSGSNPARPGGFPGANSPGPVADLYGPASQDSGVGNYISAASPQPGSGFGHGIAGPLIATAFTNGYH", "test": "Cellular thermal shift assay (CETSA) in K562 cells", "format": "cell-based", "details": "K562, 3 hours, 20 μM or 40 μM, heated to 49 °C", "from_the_text": "To explore the effect of these MSI2 inhibitors in a cancer-relevant cellular context, we selected two MSI2-dependent cancer cell lines: non-small cell lung cancer cell line PC9 and leukemia cell line K562 [73, 98–101]. Upon treatment of PC9 cells with Ro, R12–8–44–3, or negative control R12-neg, we found at multiple time points that cellular MSI2 protein levels were unchanged (Figure 6a). To confirm target engagement, we therefore adapted the cellular thermal shift assay (CETSA). […]\nas §1, with “(A) Immunoblot from PC9 cells treated with Ro (positive control), R12-neg (negative control), or R12–8–44–3. Cells were treated with 20 μM compound for 1, 3, 6, 24, or 48 hours.” left out, “(B) Thermal-induced aggregation of cellular MSI2 in the PC9 cell line.” left out"}}, "data": [{"smiles": "Cc1cc(C(=O)OCc2nc(N)c3c(C)c(C)sc3n2)c(N)cc1F", "note": "[R12–8–44–3]", "values": [{"measurement": "change of the protein's melting temperature", "setting": "MSI1 RRM1 [1]", "value": "monotonically decreased MSI1’s melting temperature"}, {"measurement": "HSQC chemical shift changes on addition of compound", "setting": "MSI1 RRM1 [2]", "value": "only a small number of peaks shift"}, {"measurement": "cellular MSI2 protein levels", "setting": "MSI2 [3]", "value": "unchanged"}, {"measurement": "soluble MSI2 after heating (CETSA)", "setting": "MSI2 [4]", "value": "confers protection against thermal-induced aggregation"}]}]}
